# Test results reported in publication PMC10720262, “Molecular determinants of cross-reactivity and potency by VH3-33 antibodies against the Plasmodium falciparum circumsporozoite protein” (Cell Reports, 2023).
# Read-outs that look alike come from different tables or passages of the source.
# Legend:
# NANP3 peptide ([…]) [1] = assay: SPR (Biacore T200), NANP3 peptide; type: binding, Plasmodium falciparum
# Protocol: (§1) With the exception of NANP6, all other peptides were acetylated at N-termini and amidated at C-termini. NANP6 contained an N-terminal biotin-aminohexanoic acid tag and an unmodified C terminus.
# (§2) Affinity of 56 VH3-33 mAbs to DND and NANP3 peptides were measured using SPR in Biacore Cytiva T200, as described before.[21] In brief, series S sensor chip CM5 (GE Healthcare) was docked in the instrument and 10 mM HEPES (pH 7.4) containing 200 mM NaCl, 0.02% Tween 20 and 0.05% BSA was used as running buffer. Anti-human IgG from human antibody capture kit (GE Healthcare) was immobilized in both flow cells through amine coupling following manufacturer’s instructions. […] Upon stabilizing flow cells with running buffer for 20 min, indicated peptides synthesized at PSL Heidelberg were injected at 0, 0.015, 0.09, 0.55, 3.3 and 20 μM concentration at a flow rate of 30 μL/min. Association and dissociation of the peptides were measured at 25°C for 60 s and 180 s, respectively. 3M MgCl2 was used for the regeneration of both flow cells. 1:1 binding model or steady-state kinetic analysis in the Biacore T200 software V2.0 was used for fitting the data and obtaining kinetic rates and constant.
# KQPA peptide ([…]) [2] = assay: SPR (Carterra LSA), KQPA peptide; type: binding, Plasmodium falciparum; settings: mAb immobilized on CMD200M chip, peptide 2-fold series, top 8 μg/mL (5.03 μM), 1X HBSTE pH 7.4, 25°C, 1:1 Langmuir model, mean of best triplicate
# Source text: (§3) Synthetic peptides were custom made by Peptide Speciality Laboratory (PSL), Heidelberg (KQPA ([…]), NPDP ([…]), DND ([…]), NDN ([…]) and NANP3 ([…])), CPC Scientific (NPNA3 ([…]), NANP6 ([…]), KQPA, NPDP and NVDP ([…])) or GenScript (KQPA, NPDP, NANP3, NDN, DND, and NANP5 ([…])). With the exception of NANP6, all other peptides were acetylated at N-termini and amidated at C-termini. NANP6 contained an N-terminal biotin-aminohexanoic acid tag and an unmodified C terminus.
# (§4) In each assay, a single analyte peptide antigen (KQPA, NPDP, NVDP, NPNA3 or NANP6) was titrated against the immobilized mAbs. Using 10 mM MES buffer at pH 5.5 with 0.01% Tween 20 as running buffer, the chip was first activated by N-Hydroxysuccinimide (NHS) and 1-Ethyl-3-(3-dimethylaminopropyl) carbodiimide hydrochloride (EDC). Then, PfCSP-specific mAbs were directly immobilized (in 10 mM sodium acetate at pH 4.5) at 10 μg/mL or 5 μg/mL concentrations for 600 s, followed by quenching of unreactive esters using 1 M ethanolamine-HCl at pH 8.5. […]
# (§5) The kinetics titration data collected were first pre-processed in the Kinetics (Carterra) software, including reference subtraction, buffer subtraction and data smoothing. The data were then exported and analyzed using the TitrationAnalysis tool developed in-house.[58] […] For antigens with multiple repeats of epitopes, the KD values determined includes avidity effect.
# NPDP peptide ([…]) [3] = assay: SPR (Carterra LSA), NPDP peptide; type: binding, Plasmodium falciparum; settings: mAb immobilized on CMD200M chip, peptide 2-fold series, top 8 μg/mL ([…]), 1X HBSTE pH 7.4, 25°C, 1:1 Langmuir model, mean of best triplicate
# Source text: as §3, §4, §5
# NPNA3 peptide ([…]) = assay: SPR (Carterra LSA), NPNA3 peptide; type: binding, Plasmodium falciparum; settings: mAb immobilized on CMD200M chip, peptide 2-fold series, top 8 μg/mL (6.41 μM), 1X HBSTE pH 7.4, 25°C, 1:1 Langmuir model, mean of best triplicate
# Source text: as §3, §4, §5
# [4] = target: recombinant full-length PfCSP (strain NF54); assay: Biolayer interferometry (BLI) binding to recombinant PfCSP; design: species or system Plasmodium falciparum; settings: Octet RED96, His-tagged PfCSP 10 μg/mL on Ni-NTA biosensors, 2-fold dilutions of mAb in PBS pH 7.4/0.01% BSA/0.002% Tween 20, 1:1 binding model
# Protocol: The resulting plasmid was transfected into FreeStyle HEK293F cells and GFP fluorescence was used to select for single cells via FACS. The selected single cell was expanded and cultured in GIBCO Freestyle 293 Expression Medium and maintained with 200 μg/mL of geneticin (G418 solution; Invivogen). Protein expression was enabled by subculturing the stable cells without antibiotic to a density of 8 x 10^5 cells/mL and harvested after 5–7 days.
# After a steady baseline was established, biosensors were dipped into wells containing 2-fold dilutions of each mAb in kinetics buffer. Tips were then immersed back into kinetics buffer for measurement of the dissociation rate. Kinetics data were analyzed using the FortéBio’s Octet Data Analysis software 9.0.0.6, and curves were fitted to a 1:1 binding model.
# [5] = system: Pf sporozoites (traversal of HC-04 cells); assay: In vitro sporozoite traversal assay; type: cell-based, Plasmodium falciparum; settings: Pf NF54 sporozoites pre-incubated with diluted IgG 30 min, rhodamine dextran, 1 h at 37°C, high content imaging
# Protocol: Pf NF54 asexual and sexual blood stage parasites were cultured in a semi-automated culture system as described by Ponnudurai.[69]^,[70] Sporozoites were produced by feeding Anopheles stephensi mosquitos (Sind-Kasur Nijmegen strain) using standard membrane feeding of cultured gametocytes, as was described by Feldmann.[71] Salivary glands were dissected, collected in Leibovitz L15 medium supplemented with 1% PenStrep and homogenized in a homemade glass grinder. Sporozoites were counted in a Bürker-Türk counting chamber using phase-contrast microscopy.
# Human hepatoma (HC-04) cells were seeded in microtiter plates and grown to near confluence. Fresh P. falciparum salivary gland sporozoites[56] were isolated from Anopheles stephensi mosquitoes and pre-incubated with diluted IgG for 30 min before adding rhodamine dextran. Following incubation for 1 h at 37°C, cell nuclei were stained with DAPI. Fluorescence levels of traversed cells were quantitated using a high content automated imager.
# [6] = system: transgenic Plasmodium berghei sporozoites expressing PfCSP (PbPfCSP); assay: Liver burden reduction assay; type: in vivo, Plasmodium berghei in C57BL/6 mice; settings: C57BL/6 mice, 100 μg mAb i.v., 16 h later 2,000 PbPfCSP sporozoites i.v., bioluminescence 42 h after challenge; relative to naive mice; n=5
# Source text: P. berghei transgenic parasites expressing PfCSP, GFP and luciferase were generated as previously described.[57] Briefly, P. berghei, strain ANKA 676m1c11, which expresses GFP and luciferase were obtained from MR4 (ATCC). Parasites were transfected to replace the CSP gene with a modified gene consisting of the CSP of Pf. To obtain sporozoites, Anopheles stephensi mosquitos were fed on mice infected with the parasite. 19–22 days later salivary glands from the infected mosquitos were obtained and sporozoites were isolated to infect mice.
# Parasite challenge to measure liver burden was assessed as previously described.[57] Briefly, 6-8-week-old C57BL/6 female mice were injected intravenously with 100 μg of the respective mAb. Mice were challenged 16 h later with 2,000 PfCSP-expressing transgenic Pb sporozoites delivered i.v. in HBSS-2% FBS. Mice were injected intraperitoneally with 100 μL of D-luciferin at 30 mg/mL 42 h after sporozoite challenge, anesthetized with isoflurane and imaged in the IVIS Spectrum Imaging System to measure the bioluminescence expressed by the transgenic parasite.
# DND peptide ([…]) [7] = assay: SPR (Biacore T200), DND peptide; type: binding, Plasmodium falciparum
# Protocol: as §1, §2
# KQPA peptide ([…]) [8] = assay: Peptide ELISA (AUC), KQPA; type: binding, Plasmodium falciparum
# Protocol: as §1
# (§6) Antigen ELISAs were performed as previously described.[21]^,[25] In brief, high-binding 384-well polystyrene plates (Corning) were coated overnight at 4°C with 2 μg/mL of the indicated peptides synthesized at PSL, Heidelberg. Plates were washed three times with 0.05% Tween 20 in PBS, blocked with 50 μL of 1% BSA in PBS for 1 h at room temperature (RT), and washed again. For analysis of mAbs, 15 μL/well of serially diluted mAbs (starting concentration 1.0 μg/mL, 1 in 4 dilution for 4 steps) were incubated for 2 h at RT. Wells were washed six times and incubated with goat anti-human IgG-HRP at a 1:1000 dilution (Jackson ImmunoResearch) in PBS with 1% BSA for 1 h. Wells were washed again and one-step ABTS substrate (RT, 20 μL/well; Roche) and 1× KPL ABTS peroxidase stop solution (RT, 20 μL/well; SeraCare Life Sciences) were used for detection. Area under the ELISA curve (AUC) was calculated using GraphPad Prism 7.04 (GraphPad).
# NANP3 peptide ([…]) [9] = assay: Peptide ELISA (AUC), NANP3; type: binding, Plasmodium falciparum
# Protocol: as §1, §6
# DND peptide ([…]) [10] = assay: Peptide ELISA (AUC), DND; type: binding, Plasmodium falciparum; settings: ELISA Area Under the Curve
# Protocol: as §1, §6
# NDN peptide ([…]) = assay: Peptide ELISA (AUC), NDN; type: binding, Plasmodium falciparum
# Protocol: as §1, §6
# NPDP peptide ([…]) [11] = assay: Peptide ELISA (AUC), NPDP; type: binding, Plasmodium falciparum; settings: plates coated with 2 μg/mL peptide; mAb from 1.0 μg/mL, 1 in 4 dilution, 4 steps; area under ELISA curve; mean of three independent experiments
# Protocol: as §1, §6
# NANP6 peptide ([…]) = assay: SPR (Carterra LSA), NANP6 peptide; type: binding, Plasmodium falciparum; settings: mAb immobilized on CMD200M chip, peptide 2-fold series, top 8 μg/mL (2.92 μM), 1X HBSTE pH 7.4, 25°C, 1:1 Langmuir model, mean of best triplicate, KD includes avidity effect for antigens with multiple repeats of epitopes
# Source text: as §3, §4, §5
# [12] = plates coated with 2 μg/mL peptide, mAb from 1.0 μg/mL, 1 in 4 dilution, 4 steps, area under ELISA curve, mean of three independent experiments
substance,measurement,setting,value
LVQLVESGGGVVQPGRSLRLSCAASGFTFSSSGMHWVRQAPGKGLEWVAIIWYDGSNKFYADSVKGRFTISRDNSKNTLYLQMNSLRAEDTAVYYCARAYVSGSHGDKYGMDVWGQGTTVTVSS [CL-531912],Kd,"NANP3 peptide ([…]) [1]; SPR, NANP3 peptide, read-out: NANP3 KD",55 nM
"Ky311: VH3-33/Vk3-11 anti-PfCSP mAb from Kymouse platform, expressed as human IgG1; MGG4-like binding mode",Kd,KQPA peptide ([…]) [2],427 nM
same,Kd,NPDP peptide ([…]) [3],3.75 nM
same,Kd,NPNA3 peptide ([…]),1.07 nM
same,Kd,[4],7.39 nM
same,Traversal Inhibition IC50,[5],0.664 µg/mL
same,Liver Burden Assay Reduction,[6],75%
QIQLVESGGGVVQPGRSLRLSCAASGFTFSTYGMHWVRQAPGKGLEWVAVIWYDGSNKYYADSVQGRFTISRDNSKNTLYLQMNSLRAEDTAIYYCTTVGPIPFDYWGQGTLVTVSS [CL-514716],DND KD (M),DND peptide ([…]) [7],Non-binder
same,NANP3 KD (M),"NANP3 peptide ([…]) [1]; SPR, NANP3 peptide",Non-binder
QVQLVESGGGVVQPGGSLRLSCAASGFTFSGSGMHWVRHAPGKGLEWVAIIWYDGSNKFYADSVKGRFTISRDNSRNTLYLQMNSLRAEDTAVYYCARAYVSGNYGDKYGMDVWGQGTTVTVSS [CL-532151],KQPA AUC,"KQPA peptide ([…]) [8]; ELISA Area Under the Curve, KQPA peptide",1.36
same,NANP3 AUC,"NANP3 peptide ([…]) [9]; ELISA Area Under the Curve, NANP3 peptide",1.84
same,DND AUC,DND peptide ([…]) [10],2.23
same,NDN AUC,"NDN peptide ([…]); ELISA Area Under the Curve, NDN peptide",0.29
mAb CIS43: previously characterized NPDP-specific human anti-PfCSP mAb (IGHV1-3) [reference compound],ELISA AUC KQPA,KQPA peptide ([…]) [8]; [12],0.10
same,ELISA AUC NPDP,NPDP peptide ([…]) [11],1.50
same,ELISA AUC NANP3,NANP3 peptide ([…]) [9]; [12],0.20
same,ELISA AUC NDN,NDN peptide ([…]); [12],0.20
same,Kd,"NANP3 peptide ([…]) [1]; Biacore T200, mAb captured via anti-human IgG on CM5, peptide 0-20 μM, 25°C, 1:1 binding model or steady-state analysis, single measurement for sample mAbs, three independent measurements for previously characterized mAbs, read-out: SPR NANP3 KD",1720 nM
same,SPR KQPA KD,KQPA peptide ([…]) [2],Non-binder
same,Kd,NPDP peptide ([…]) [3],19.1 nM
same,Kd,NPNA3 peptide ([…]),9430 nM
same,Kd,NANP6 peptide ([…]),54.9 nM
same,Kd,[4],15.6 nM
same,Traversal Inhibition IC50,[5],0.362 µg/mL
